# Source: patent US20220306587A1, “COMPOUNDS AND USE THEREOF FOR THE TREATMENT OF INFECTIOUS DISEASES AND CANCER” (AC BIOSCIENCE SA, priority 2019, published 2022)
# Tests used:
# [1] = biological target: T1, recombinant human Pyridoxal kinase (PDXK) (Homo sapiens, UniProt O00764); settings: already reported; cited from earlier work
# T1 sequence (O00764 1-312): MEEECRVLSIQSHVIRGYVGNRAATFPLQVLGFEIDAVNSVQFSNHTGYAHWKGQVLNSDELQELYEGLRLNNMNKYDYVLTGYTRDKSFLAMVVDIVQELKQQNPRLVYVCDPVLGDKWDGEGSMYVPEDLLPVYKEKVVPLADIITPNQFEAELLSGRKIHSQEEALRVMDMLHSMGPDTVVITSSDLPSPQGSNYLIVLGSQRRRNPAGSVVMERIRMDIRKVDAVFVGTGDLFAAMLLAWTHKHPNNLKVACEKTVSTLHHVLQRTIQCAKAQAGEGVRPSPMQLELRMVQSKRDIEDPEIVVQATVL
# [2] = biological target: T2, S1P lyase (Mus musculus, UniProt Q8R0X7); settings: administered to mice; cited from earlier work
# T2 construct: host or cells: mice (in vivo)
# T2 sequence (Q8R0X7 1-568): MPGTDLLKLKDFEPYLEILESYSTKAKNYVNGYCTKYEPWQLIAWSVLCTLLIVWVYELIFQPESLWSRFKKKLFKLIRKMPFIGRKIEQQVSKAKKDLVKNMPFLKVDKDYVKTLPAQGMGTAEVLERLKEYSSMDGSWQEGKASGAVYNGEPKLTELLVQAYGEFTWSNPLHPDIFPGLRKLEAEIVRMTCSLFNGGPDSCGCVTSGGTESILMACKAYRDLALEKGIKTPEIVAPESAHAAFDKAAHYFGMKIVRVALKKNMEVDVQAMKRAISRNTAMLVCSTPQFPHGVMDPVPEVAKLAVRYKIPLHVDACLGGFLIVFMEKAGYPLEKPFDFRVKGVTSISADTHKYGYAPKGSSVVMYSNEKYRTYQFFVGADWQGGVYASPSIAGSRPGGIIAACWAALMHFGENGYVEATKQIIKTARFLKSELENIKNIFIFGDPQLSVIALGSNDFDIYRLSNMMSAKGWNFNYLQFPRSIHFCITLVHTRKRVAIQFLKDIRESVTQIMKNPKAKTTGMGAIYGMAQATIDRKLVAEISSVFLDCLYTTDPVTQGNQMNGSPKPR
# [3] = biological target: T1, recombinant human Pyridoxal kinase (PDXK); assay: In vitro phosphorylation by recombinant human pyridoxal kinase (ADP formation, ADPglo luminescence); assay type: biochemical; settings: 200 μM compound, 10 μg/ml rhPDXK, 1 mM ATP, 1 hour at 37° C.; FIG. 2
# Protocol: ACB1906, A6770, 4-DOP (200 μM) and pyridoxal HCL (1 mM) were incubated with 10 μg/ml rhPDXK for 1 hour at 37° C. in the presence of 1 mM ATP containing—10 mM HEPES buffer with 0.05% Triton X-100, 0.01% Plurogenic F127, 25 μM Na3VO4 and 250 μM MgCl2. ADP formation was measured using the luminescence-based ADPglo kit from Promega. Statistical significance determined by Anova. *denotes p<0.05.
# ACB1906's ability to be phosphorylated by recombinant human Pyridoxal kinase (PDXK) in vitro was compared to the structurally similar known imidazole S1PL inhibitor A6770, the PDXK and S1PL non-specific inhibitor 4-deoxypyridoxine (4-DOP) and the natural pyridoxal ligand. […] Increased phosphorylation of thiazole compounds confers an advantage in therapeutic applications as this would be a limiting step for its ability to effect a therapeutically relevant modulation in S1P levels.
smiles,measurement,setting,value
"CC(=O)c1nc(CO)c[nH]1 [Compound A6770, 1-(4-(Hydroxymethyl)-1H-imidazol-2-yl)ethan-1-one]",phosphorylation by PDXK to A6770-P,[1],reported to phosphorylate
"CC(=O)c1nc([C@@H](O)[C@H](O)[C@H](O)CO)c[nH]1 [THI, 1-(4-((1R,2S,3R)-1,2,3,4-Tetrahydroxybutyl)-1H-imidazol-2-yl)ethan-1-one]",S1P lyase activity,[2],inhibits S1P lyase activity
CC(=O)c1nc(CO)cs1 [Compound 6],ability to be phosphorylated (ADP formation) in comparison to A6770,[3],~2 fold
